Columns and labels:
[1] = set-up: species or system rats; details: rat, in vivo
Method: Studies of the disposition of compound 11 ((3′R,4′R)-3′,4′-di-O-(S)-(−)-camphanoyl-3-hydroxymethyl-4-methyl-(+)-cis-khellactone) and 4-methyl-DCK ((3′R,4′R)-3′,4′-di-O-(S)-(−)-camphanoyl-4-methyl-(+)-cis-khellactone) were conducted in rats. 4-Methyl-DCK can be prepared, for example, as described in U.S. Pat. No. 5,847,165. The rats ordered from Charles River with jugular catheters in place were allowed to acclimate for one to two days prior to use. The venous catheter was kept patent by flushing daily with heparin solution. […]
Reversed phase HPLC was conducted with an ODS, 5 μM particle size, 150×10 mm Axxiom column (Thompson Instruments, Chantilly, Va.) using 55% acetonitrile and water as the mobile phase with 25 mM acetic acid buffer at 1.5 mL/min. Detection was carried out at 320 nm (λmax) for UV detection and at an excitation wavelength of 320 nm. The equipment for HPLC was an HP 1100 system with UV and quantitative analysis was performed using the HP Chemstation. […]
Weighed amounts (approximately 7-8 mg) of 4-methyl-DCK were suspended in 1 mL of 10% Tween 80/water, then administered to two rats (250-300 g) by oral gavage using a feeding needle to provide an oral dose of 25 mg/kg. Blood samples (0.3 mL) were collected at 0, 0.25, 0.50, 0.75, 1.0, 1.5, 2, 4, 8, and 23 hours following the oral dosing. Approximately 0.01 mL of heparin was added to each sample. The samples were then centrifuged to collect 0.10 mL of plasma. The plasma samples were frozen at −20° C. prior to analysis. The samples were thawed and analyzed by reversed phase HPLC within two weeks of collection.
Reversed phase HPLC was conducted with an ODS, 5 μM particle size, 150×10 mm Axxiom column (Thompson Instruments, Chantilly, Va.) using 60% acetonitrile/0.1% TFA in water as the mobile phase. Detection was carried out at 320 nm (λmax) for UV detection. The equipment for HPLC was an HP 1050 quaternary HPLC pump, an HP 1050 UV detector at 320 nm and range 0.2, an HP 3390 integrator, and a BioRad Model AS-100 autosampler.
Standard curves were prepared by addition of appropriate diluted stock solutions of 4-methyl-DCK to 0.10 mL plasma (pooled human plasma) to provide concentration of zero, and 0.05 to 20 μg/mL in a 13×100 mm culture tube. Internal standard solution (0.025 mL of 0.01 mg/mL DCK) was then added to each tube. The spiked samples were briefly vortexes, then allowed to equilibrate for at least 10 minutes prior to further workup. […]
The HPLC assay was partially validated to have a range of 0.125 to 20 μg/mL in plasma, with a detection limit of 50 ng/mL. Recovery from plasma was determined by spiking 4-methyl-DCK into plasma the same way as was done in the preparation of the standard curve, and preparing samples as described above, but adding DCK as an external standard just prior to injection. […]

HIV-1 (IIIB isolate) = experiment: Anti-HIV activity in H9 lymphocytes (p24 antigen ELISA); type: cell-based; details: H-9 lymphocytes
Method: (§1) The biological evaluation of HIV-1 inhibition was carried out according to established protocols, (Kashiwada, Y., et al., J. Med. Chem. 39:1016-1017 (1996); Hashimoto, F., et al., Bioorg. & Med. Chem. 5:2133-2143 (1997)). The T cell line, H9, was maintained in continuous culture log-phase growth in complete medium (RPMI 1640 with 10% fetal calf serum supplemented with L-glutamine at 5% CO2 and 37° C.). Test samples were first dissolved in dimethyl sulfoxide at a concentration of 10 mg/ml to generate master stocks with dilutions made into tissue culture media to generate working stocks. The following drug concentrations were used routinely for screening: 50, 5, and 0.5 μg/mL. For agents found to be active, additional dilutions were prepared for subsequent testing so that an accurate EC50 value (defined below) could be determined. As the test samples were being prepared, an aliquot of the H9 cell line was infected with HIV-1 (IIIB isolate) while a second aliquot was mock-infected with complete medium. […] An amount of virus equal to approximately 6.25×10^4 TCID50 was added to the first aliquot of 3.5×10^6H9 cells. The second aliquot received tissue culture medium only, and these mock-infected cells were used for toxicity determinations (IC50 defined below). After a 4 h incubation at 37° C. and 5% CO2, both cell populations were washed three times with fresh medium and then added to the appropriate wells of a 96-well plate containing various concentrations of the test drug or tissue culture medium (positive infected control/negative drug control). In addition, AZT was assayed during each experiment as a positive drug control. The plates were incubated at 37° C. and 5% CO2 for 5 days. Cell-free culture supernatants were collected on Day 5 for use in a p24 antigen-capture ELISA assay to determine virus replication. p24 is the core protein of HIV and therefore is an indirect measure of the amount of virus present in the culture supernatants. Toxicity was determined using a viable dye method (XTT) on mock-infected H9 cells that were treated with test sample, AZT or no drug. If a test sample suppressed viral replication and was toxic to less than 50% of the cells, its effects were reported in the following terms: IC50, the concentration of test sample which was toxic to 50% of the mock-infected H9 cells; EC50, the concentration of the test sample which was able to suppress HIV replication by 50%; and Therapeutic Index (TI), the ratio of IC50 to EC50.
(§2) Compounds of the present invention were assayed for anti-HIV activity according to the following assay procedures. The T cell line, H9, and the promonocytic cell line, U937, were maintained separately in continuous culture with complete medium (RPMI 1640 with 10% fetal calf serum) at 5% CO2 and 37° C. The cell lines were used in experiments only when in the logarithmic phase of growth, whereas uninfected peripheral blood mononuclear cells (PBMCs) were first stimulated with PHA (1 μg/mL) for three days. All cell targets were incubated with HIV-1 (IIIB isolate, 1×10^6 TCID50/mL) for one hour at 37° C. and 5% CO2. The cell lines and PBMCs were washed thoroughly to remove unadsorbed virions and resuspended at 4×10^5 cells/mL in complete medium or complete medium with 10% v/v interleukin 2 (IL-2), respectively. […] aliquots were placed into wells of 96-well tissue culture plates containing an equal volume of test compounds (diluted in the appropriate culture medium). The toxicity of each compound was assessed by determining the viability of compound-exposed uninfected cells after five days at 37° C. and 5% CO2. A p24 antigen ELISA assay was used to determine the level of virus released in the medium of the HIV-infected cultures. The p24 antigen assay used a HIV-1 anti-p24 specific monoclonal antibody as the capture antibody coated onto 96-well plates. […]

mock-infected H9 cells = experiment: Cytotoxicity in mock-infected (uninfected) H9 cells; type: cell-based
Method: as §1, §2

Structure (SMILES)	concentration in plasma after oral administration ([1]; po, 25 mg/kg)	oral bioavailability (Foral) [1]	clearance ([1]; iv)	time at which Cmax occurs ([1]; po)	Anti-HIV Activity EC50 (HIV-1 (IIIB isolate); HIV-1 IIIB, p24 ELISA, day 5, average of at least two experiments)	Therapeutic Index (TI = IC50/EC50) (HIV-1 (IIIB isolate); ratio of IC50 to EC50)	Cytotoxicity IC50 (mock-infected H9 cells)
Cc1cc(=O)oc2c3c(ccc12)OC(C)(C)[C@H](OC(=O)[C@@]12CCC(C)(C(=O)O1)C2(C)C)[C@@H]3OC(=O)[C@@]12CCC(C)(C(=O)O1)C2(C)C (relative stereo) [Compound 4-methyl-DCK, (3′R,4′R)-3′,4′-di-O-(S)-(−)-camphanoyl-4-methyl-(+)-cis-khellactone, reference compound]	less than 50 ng/mL						
Cc1c(CO)c(=O)oc2c3c(ccc12)OC(C)(C)[C@H](OC(=O)[C@@]12CCC(C)(C(=O)O1)C2(C)C)[C@@H]3OC(=O)[C@@]12CCC(C)(C(=O)O1)C2(C)C (relative stereo) [Compound 11, (3′R,4′R)-3′,4′-Di-O-(S)-(−)-camphanoyl-3-hydroxymethyl-4-methyl-(+)-cis-khellactone]		15%	83 mL/min/kg	120 to 240 min	0.0161 µg/mL	1,320	21.2 µg/mL

Reference: patent US6768007B2, “Substituted 3′,4′-di-O-camphanoyl-(+)-cis-khellactone analogs, compositions thereof, and methods for using thereof” (Panacos Pharmaceuticals, Inc., priority 2001, dated 2004)
